Measured values published in patent US20230116196A1, “METHOD OF TREATING CNS DISORDERS WITH NEU[…] GABAERGIC COMPOUNDS” (priority 2017, published 2023).

Tests used:
DGGCs from mutant mice = experiment: sIPSC decay time in DGGCs from mutant mice; assay type: cell-based, mouse; conditions: 100 nM ALLO
Description: The ability of 100 nM ALLO to modulate the decay time of sIPSCs was compared in DGGCs from WT and S940A mice as detailed in FIG. 2.

[1] = test system: dentate gyrus granule cells (DGGCs); experiment: sIPSCs in DGGCs after 15 min NAS exposure and >30 min wash; assay type: cell-based, mouse
Description: Bar graphs show average sIPSC decay and amplitude.
For tonic current measurements, an all-points histogram was plotted for a 10 s period before and during 100 μM picrotoxin application, once the response reached a plateau level. Recordings with unstable baselines were discarded. Fitting the histogram with a Gaussian distribution gave the mean baseline current amplitude and the difference between the amplitudes before and during picrotoxin was considered to be the tonic current. The negative section of the all-points histogram which corresponds to the inward IPSCs was not fitted with a Gaussian distribution (Kretschmannova et al., 2013; Nusser and Mody, 2002). Series resistance and whole-cell capacitance were continually monitored and compensated throughout the course of the experiment. Recordings were eliminated from data analysis if series resistance increased by >20%. Spontaneous inhibitory post-synaptic currents (sIPSCs) were analyzed using the mini-analysis software (version 5.6.4; Synaptosoft, Decatur, Ga.). […] Only recordings with a minimum of 200 events fitting these criteria were analyzed. sIPSCs amplitude, and frequency from each experimental condition was pooled and expressed as mean±SEM. To measure sIPSC decay, 100 consecutive events were averaged and the decay was fitted to a double exponential and the weighted decay constant (tw) was determined. […]

SMILES	sIPSC decay time in the mutant mice (DGGCs from mutant mice)	SGE-516 enhancement of sIPSC amplitude in presence of GFX ([1]; 100 nM SGE-516 with GFX)	sIPSC amplitude following exposure and wash ([1]; 100 nM, 15 min, >30 min wash)
CC(=O)[C@H]1CC[C@H]2[C@@H]3CC[C@H]4C[C@H](O)CC[C@]4(C)[C@H]3CC[C@]12C [ALLO, Allopregnanolone]	did not increase	–	–
C[C@@]1(O)CC[C@@]2(C)[C@H](CC[C@@H]3[C@@H]2CC[C@]2(C)[C@@H](C(=O)Cn4nccn4)CC[C@@H]32)C1 [SGE-516]	–	significantly reduced	significantly enhanced
